Columns and labels:
[1] = tested on: C. glabrata; assay: Antifungal susceptibility (MIC/MFC), CLSI criteria; type: cell-based, Candida glabrata; conditions: C. glabrata ATCC; 0.5 McFarland inoculum (10^6 cells/ml)
Procedure: (§1) Antifungal activity of the small molecules was evaluated using USA standards, Clinical and Laboratory Standards Institute (CLSI) criteria. In brief, inocula from 24 h Candida cultures on Sabourauds's dextore agar were standardized to a turbidity equivalent of 0.5 McFarland standards at 520 nm with a spectrophotometer. The suspensions were further diluted in Rosewell Park Memorial Institute (RPMI) 1640 medium (Life technologies, New York, USA) to yield an inoculum concentration of approximately 0.5 1×10^3 to 2.5 1×10^3 cells/ml. Minimum inhibitory concentration (MIC) and minimum fungicidal concentration (MFC) assay was performed in 96-well plates (Iwaki, Tokyo, Japan) and each of the Candida species was exposed to a double dilution of SM21. Amphotericin B was used as a positive control. All the experiments were preformed three occasions with duplicates for all isolates. The plates were incubated at 35° C. for 48 h to evaluate MIC. In the case of Cryotococcus neoformans, reading were taken after 72 h. Aforementioned assay was performed for C. albicans ATCC 90028, C. albicans SC5314 and 10 C. albicans clinical isolates. Moreover, MIC/MFC determination was carried out for other fungal species such as C. glabrata, C. krusei, C. tropicalis, C. parapsilosis, C. neoformans, Aspergillus fumigates and Penicillium marneffei. […]

[2] = tested on: C. tropicalis; assay: Antifungal susceptibility (MIC/MFC), CLSI criteria; type: cell-based, Candida tropicalis; conditions: C. tropicalis ATCC; 0.5 McFarland inoculum (10^6 cells/ml)
Procedure: as §1

[3] = tested on: C. parapsilosis; assay: Antifungal susceptibility (MIC/MFC), CLSI criteria; type: cell-based, Candida parapsilosis; conditions: C. parapsilosis ATCC; 0.5 McFarland inoculum (10^6 cells/ml)
Procedure: as §1

[4] = tested on: C. albicans; assay: Dose-dependent assay of MIC/MFC at different cell densities; type: cell-based, Candida albicans; set-up: unit not given here
Procedure: Antifungal activity of the small molecules was evaluated using USA standards, Clinical and Laboratory Standards Institute (CLSI) criteria. In brief, inocula from 24 h Candida cultures on Sabourauds's dextore agar were standardized to a turbidity equivalent of 0.5 McFarland standards at 520 nm with a spectrophotometer. The suspensions were further diluted in Rosewell Park Memorial Institute (RPMI) 1640 medium (Life technologies, New York, USA) to yield an inoculum concentration of approximately 0.5 1×10^3 to 2.5 1×10^3 cells/ml. Minimum inhibitory concentration (MIC) and minimum fungicidal concentration (MFC) assay was performed in 96-well plates (Iwaki, Tokyo, Japan) and each of the Candida species was exposed to a double dilution of SM21. Amphotericin B was used as a positive control. All the experiments were preformed three occasions with duplicates for all isolates. The plates were incubated at 35° C. for 48 h to evaluate MIC. In the case of Cryotococcus neoformans, reading were taken after 72 h. Aforementioned assay was performed for C. albicans ATCC 90028, C. albicans SC5314 and 10 C. albicans clinical isolates. Moreover, MIC/MFC determination was carried out for other fungal species such as C. glabrata, C. krusei, C. tropicalis, C. parapsilosis, C. neoformans, Aspergillus fumigates and Penicillium marneffei. […] Next using dose-dependent assay we tested that MIC/MFC of SM21 from 10^3 cells/ml to 10^7 cells/ml of C. albicans (Table 2). Each of the foregoing experiment was repeated on three different occasions.

[5] = tested on: C. glabrata drug resistant isolates; assay: Susceptibility of multidrug resistant clinical isolates, CLSI M27A broth microdilution; type: cell-based, Candida glabrata
Excerpt: (§2) Oral Biosciences laboratory has one of the largest collections of fungal isolates, particular that of Candida species in the world. In our previous studies, we have found multidrug resistant clinical isolates of Candida species against existing antifungals. In particular, some of these strains are resistant to best antifungal agents to date such as caspofungin, amphotericin B and fluconazole. Therefore, we performed antifungal susceptibility testing for SM21 against these drug resistant Candida isolates suing CLSI M27A brothmicrodultion assay and CLSI M44-A disc diffusion assay.

[6] = tested on: Escherichia coli; assay: Antibacterial activity (FIG. 3); type: cell-based; conditions: dose of 2 μg
Procedure: (§3) FIGS. 3A-C. Antibacterial activity of SM21 at dose of 2 μg was examined for three bacterial species together with other antifungal agents caspofungin, amphotericin B and chlorhexidine. (A) Lactobacillus acidophilus (B) Streptococcus mutans and (C) Escherichia coli were used for the experiments.
as §2

[7] = tested on: Lactobacillus acidophilus; assay: Antibacterial activity (FIG. 3); type: cell-based; conditions: dose of 2 μg
Procedure: as §3, §2

[8] = tested on: Streptococcus mutans; assay: Antibacterial activity (FIG. 3); type: cell-based; conditions: dose of 2 μg
Procedure: as §3, §2

[9] = tested on: Candida albicans invasion of human oral keratinocytes; assay: Candida-human oral keratinocytes co-culture model; type: cell-based; conditions: 1×10^4 cells/ml C. albicans with human oral keratinocytes, 24-h incubation
Procedure: We also examined the ability of SM21 to inhibit invasion of Candida albicans in Candida-human oral keratinocytes co-culture model. Primary human oral keratinocytes (ScienCell Research Laboratories™, Carlsbad, Calif., USA) at passage two were cultured using Defined Keratinocyte-Serum Free Medium (Gibco, Grand Island, N.Y., USA) which contained 0.2% Defined Keratinocyte-SFM Growth Supplement (Gibco) and 1% penicillin/streptomycin solution. Cells were incubated at 37° C. in a humidified atmosphere with 5% CO2 and 95% air. Yeast cells for inoculation were cultured for 24 h at 37° C. on Sabouraud dextrose agar (Difco, Hampshire, England). A sample of the culture was washed thrice in PBS and an inoculum of approximately 2×10^5 cells was suspended in 10 ml of YPG medium (1% yeast extract, 2% peptone and 2% glucose; Difco, Detroit, Mich.). The suspension was cultured for 18 h at 37° C. with orbital shaking and the cells were harvested, washed in 0.9% NaCl and a sample of cells was resuspended in fresh medium in a shaker for 24 h at 37° C. Afterwards the cells were harvested by centrifuge and the inocula were prepared in phosphate buffered saline (PBS, pH 7.2). Human oral keratinocytes were grown to 80-90% confluence in u-Slide 8-well plates (ibidi GmbH Integrated BioDiagnostics, Martinsried, Germany). […]

Structure (SMILES): CN(C)c1ccc(/C=C/c2cc(C(C)(C)C)[o+]c(C(C)(C)C)c2)cc1.[O-][Cl+3]([O-])([O-])[O-] [SM21]
- Susceptibility (MIC90) [1]: 1.6 µg/mL
- Susceptibility (MIC90) [2]: 0.8 µg/mL
- Susceptibility (MIC90) [3]: 1.6 µg/mL
- MIC/MFC ([4]; C. albicans 10^4 cells/ml): 0.1
- MIC/MFC ([4]; C. albicans 10^5 cells/ml): 0.1
- MIC/MFC ([4]; C. albicans 10^6 cells/ml): 0.2
- MIC/MFC ([4]; C. albicans 10^7 cells/ml): 0.6
- MIC ([5]; C. glabrata 1570, resistant to Itraconazole): 0.5 µg/mL
- MIC ([5]; C. glabrata T1585, resistant to Fluconazole, Itraconazole, ketoconazole, Voriconazole): 1 µg/mL
- MIC ([5]; C. glabrata T1672, resistant to Itraconazole, Ketaconazole): 0.5 µg/mL
- Antibacterial activity [6]: not anti-bacterial
- Antibacterial activity [7]: not anti-bacterial
- Antibacterial activity [8]: not anti-bacterial
- Protection of keratinocytes from C. albicans invasion (LIVE/DEAD, confocal) [9]: able to prevent the epithelial cell damage
